Experimental data taken from patent publication US10189788B2, “Substituted N,2-diarylquinoline-4-carboxamides and the use thereof as anti-inflammatory agents” (BAYER PHARMA AKTIENGESELLSCHAFT, priority 2014, dated 2019).

How the values were obtained:
Human FP Receptor [1] = biological target: T1, Human FP Receptor (Homo sapiens (Human), UniProt P43088); assay: In vitro test of inhibition of human FP receptor activity, variant B-1A (PGF2α-induced calcium flux in FP-expressing CHEM1 cells); type: cell-based; conditions: calcium flux induced by 3 nM PGF2α, Fluo-8, some mean values from multiple determinations
T1 sequence (P43088 whole entry): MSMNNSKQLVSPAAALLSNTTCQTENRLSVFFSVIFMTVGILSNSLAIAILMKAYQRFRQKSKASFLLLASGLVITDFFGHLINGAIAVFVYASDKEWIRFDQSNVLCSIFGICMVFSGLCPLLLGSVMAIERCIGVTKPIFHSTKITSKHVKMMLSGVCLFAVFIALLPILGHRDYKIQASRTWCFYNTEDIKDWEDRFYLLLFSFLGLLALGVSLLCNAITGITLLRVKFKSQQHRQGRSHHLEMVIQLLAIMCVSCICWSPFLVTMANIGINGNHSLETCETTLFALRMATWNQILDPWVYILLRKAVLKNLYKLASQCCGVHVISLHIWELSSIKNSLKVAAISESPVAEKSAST
Text: • BSA bovine serum albumin • CRTH2 chemoattractant receptor-homologous molecule expressed on T helper type 2 cells • DMEM Dulbecco's modified Eagle's medium • DMSO dimethyl sulfoxide • DP PGD2 receptor • EC50 half-maximum effective concentration • em. emission • EP PGE2 receptor • ex. excitation • FCS fetal calf serum • FP PGF2α receptor • HEPES 2-[4-(2-hydroxyethyl)piperazin-1-yl]ethanesulfonic acid • IC50 half-maximum inhibitory concentration • IP PGI2 receptor • MES 2-(N-morpholino)ethanesulfonic acid • Pen/Strep penicillin/streptomycin • PGD2 prostaglandin D2 • PGE2 prostaglandin E2 • PGF2α prostaglandin F2α • PGI2 prostaglandin […] • TC tissue culture • TP thromboxane A2 receptor • Tris tris(hydroxymethyl)aminomethane • v/v volume to volume ratio (of a solution) • w/w weight to weight ratio (of a solution) B-1.

Human FP Receptor [2] = biological target: T1, Human FP Receptor; assay: In vitro test of inhibition of human FP receptor activity, variant B-1B (PGF2α-induced calcium flux in recombinant FP-expressing CHO cells with GCaMP6); type: cell-based; conditions: recombinant FP-expressing CHO cells with GCaMP6, calcium flux induced by 3 nM PGF2α, some mean values from multiple determinations
Text: 470 nm/em. 525 nm in a fluorescence measuring instrument (FLIPR Tetra®, MolecularDevices) for 120 seconds.

[3] = eliminated renally; cited from earlier work
[4] = unstable molecule, rearranged enzymatically in lung, liver and kidney to 15-ketodihydro-PGF2α; cited from earlier work

| Compound | IC50 (Human FP Receptor [1]) [nM] | other results |
| --- | --- | --- |
| Cc1c(-c2ccccc2)nc2ccc(Br)cc2c1C(=O)Nc1ccc(C(=O)O)cc1F [Example 7, 4-{[(6-Bromo-3-methyl-2-phenylquinolin-4-yl)carbonyl]amino}-3-fluorobenzoic acid] | 20 | IC50 (Human FP Receptor [2]): 34 nM |
| Cc1c(-c2ccccc2)nc2ccc(Br)cc2c1C(=O)Nc1ccc(C(=O)O)cc1F [Example 50, Sodium 4-{[(6-bromo-3-methyl-2-phenylquinolin-4-yl)carbonyl]amino}-3-fluorobenzoate] | 37 | IC50 (Human FP Receptor [2]): 44 nM |
| CNC(=O)c1ccc(NC(=O)c2c(C)c(-c3ccccc3)nc3ccc(Br)cc23)c(F)c1 [Example 56, 6-Bromo-N-[2-fluoro-4-(methylcarbamoyl)phenyl]-3-methyl-2-phenylquinoline-4-carboxamide] | 285 | – |
| O=C(O)c1ccc(NC(=O)c2c(C(F)(F)F)c(-c3ccccc3)nc3ccc(Br)cc23)c(F)c1 [Example 57, 4-({[6-Bromo-2-phenyl-3-(trifluoromethyl)quinolin-4-yl]carbonyl}amino)-3-fluorobenzoic acid] | 437 | – |
| Cc1c(-c2ccccc2)nc2c(C)cc(Br)cc2c1C(=O)Nc1ccc(C(=O)O)cc1 [Example 58, 4-{[(6-Bromo-3,8-dimethyl-2-phenylquinolin-4-yl)carbonyl]amino}benzoic acid] | 557 | – |
| O=C(O)c1cc(F)c(NC(=O)c2c(C(F)(F)F)c(-c3ccccc3)nc3ccc(Br)cc23)c(Br)c1 [Example 62, 3-Bromo-4-({[6-bromo-2-phenyl-3-(trifluoromethyl)quinolin-4-yl]carbonyl}amino)-5-fluorobenzoic acid] | 301 | – |
| Cc1c(-c2ccccc2)nc2ccc(S(F)(F)(F)(F)F)cc2c1C(=O)Nc1ccc(C(=O)O)cc1F [Example 63, 3-Fluoro-4-({[3-methyl-6-(pentafluoro-λ^6-sulfanyl)-2-phenylquinolin-4-yl]carbonyl}amino)benzoic acid] | 246 | – |
| Cc1c(-c2ccccc2)nc2ccc(C(F)F)cc2c1C(=O)Nc1ccc(C(=O)O)cc1F [Example 64, 4-({[6-(Difluoromethyl)-3-methyl-2-phenylquinolin-4-yl]carbonyl}amino)-3-fluorobenzoic acid] | 362 | – |
| Cc1c(-c2ccccc2)nc2ccc(Br)cc2c1C(=O)Nc1cc(F)c(C(=O)O)cc1F [Example 66, 4-{[(6-Bromo-3-methyl-2-phenylquinolin-4-yl)carbonyl]amino}-2,5-difluorobenzoic acid] | 282 | – |
| Cc1c(-c2ccccc2)nc2ccc(Br)cc2c1C(=O)Nc1ccc(C(=O)NS(=O)(=O)C(F)(F)F)cc1F [Example 67, 6-Bromo-N-(2-fluoro-4-{[(trifluoromethyl)sulfonyl]carbamoyl}phenyl)-3-methyl-2-phenylquinoline-4-carboxamide] | 239 | IC50 (Human FP Receptor [2]): 134 nM |
| Cc1c(-c2ccccc2)nc2ccc(Br)cc2c1C(=O)Nc1ccc(C(=O)NS(=O)(=O)N(C)C)cc1F [Example 68, 6-Bromo-N-{4-[(dimethylsulfamoyl)carbamoyl]-2-fluorophenyl}-3-methyl-2-phenylquinoline-4-carboxamide] | 318 | IC50 (Human FP Receptor [2]): 182 nM |
| Cc1c(-c2ccccc2)nc2ccc(Br)cc2c1C(=O)Nc1ccc(C(=O)O)cc1F [Example 69, Potassium 4-{[(6-bromo-3-methyl-2-phenylquinolin-4-yl)carbonyl]amino}-3-fluorobenzoate] | 104 | IC50 (Human FP Receptor [2]): 59 nM |
| O=C(O)c1ccc(NC(=O)c2c(F)c(-c3ccccc3)nc3ccc(Br)cc23)c(F)c1 [Example 73, 4-{[(6-Bromo-3-fluoro-2-phenylquinolin-4-yl)carbonyl]amino}-3-fluorobenzoic acid] | – | IC50 (Human FP Receptor [2]): 98 nM |
| COc1c(-c2ccccc2)nc2ccc(Br)cc2c1C(=O)Nc1ccc(C(=O)O)cc1F [Example 74, 4-{[(6-Bromo-3-methoxy-2-phenylquinolin-4-yl)carbonyl]amino}-3-fluorobenzoic acid] | 220 | – |
| Bleomycin | – | half-life [3]: about 3 hours |
| Prostaglandin F2alpha [PGF2α] | – | t1/2 [4]: < 1 min |

Second part, led by results:

| IC50 (Human FP Receptor [1]) [nM] | Compound | other results |
| --- | --- | --- |
| 52 | Cc1c(-c2ccc(F)cc2)nc2ccc(Br)cc2c1C(=O)Nc1ccc(C(=O)O)cc1F [Example 43, 4-({[6-Bromo-2-(4-fluorophenyl)-3-methylquinolin-4-yl]carbonyl}amino)-3-fluorobenzoic acid] | – |
| 33 | Cc1c(-c2cccc(F)c2)nc2ccc(Br)cc2c1C(=O)Nc1ccc(C(=O)O)cc1F [Example 44, 4-({[6-Bromo-2-(3-fluorophenyl)-3-methylquinolin-4-yl]carbonyl}amino)-3-fluorobenzoic acid] | – |
| 205 | Cc1c(-c2ccccc2F)nc2ccc(Br)cc2c1C(=O)Nc1ccc(C(=O)O)cc1F [Example 45, 4-({[6-Bromo-2-(2-fluorophenyl)-3-methylquinolin-4-yl]carbonyl}amino)-3-fluorobenzoic acid] | – |
| 197 | Cc1c(-c2ccccc2)nc2ccc(Br)cc2c1C(=O)Nc1ccc(C(N)=O)cc1 [Example 47, 6-Bromo-N-(4-carbamoylphenyl)-3-methyl-2-phenylquinoline-4-carboxamide] | – |
| 102 | Cc1c(-c2ccccc2)nc2ccc(Br)cc2c1C(=O)Nc1ccc(C(N)=O)cc1F [Example 48, 6-Bromo-N-(4-carbamoyl-2-fluorophenyl)-3-methyl-2-phenylquinoline-4-carboxamide] | – |
| 120 | Cc1c(C(=O)Nc2ccc(C(=O)O)cc2F)c2cc(Br)ccc2[n+]([O-])c1-c1ccccc1 [Example 49, 4-{[(6-Bromo-3-methyl-1-oxido-2-phenylquinolin-4-yl)carbonyl]amino}-3-fluorobenzoic acid] | – |
| 17 | COCSc1cc(C(=O)O)ccc1NC(=O)c1c(C)c(-c2ccccc2)nc2ccc(Br)cc12 [Example 52, 4-{[(6-Bromo-3-methyl-2-phenylquinolin-4-yl)carbonyl]amino}-3-[(methoxymethyl)sulfanyl]benzoic acid] | IC50 (Human FP Receptor [2]): 6 nM |
| 31 | Cc1c(-c2ccccc2)nc2ccc(Br)cc2c1C(=O)Nc1ccc(C(=O)O)cc1S(=O)(=O)C(F)(F)F [Example 53, 4-{[(6-Bromo-3-methyl-2-phenylquinolin-4-yl)carbonyl]amino}-3-[(trifluoromethyl)sulfonyl]benzoic acid] | – |
| 102 | Cc1c(C(=O)Nc2ccc(C(=O)O)cc2SC(F)(F)F)c2cc(Br)ccc2[n+]([O-])c1-c1ccccc1 [Example 54, 4-{[(6-Bromo-3-methyl-1-oxido-2-phenylquinolin-4-yl)carbonyl]amino}-3-[(trifluoromethyl)sulfanyl]benzoic acid] | – |
| 49 | Cc1c(-c2ccccc2)nc2ccc(Br)c(Cl)c2c1C(=O)Nc1ccc(C(=O)O)cc1F [Example 55, 4-{[(6-Bromo-5-chloro-3-methyl-2-phenylquinolin-4-yl)carbonyl]amino}-3-fluorobenzoic acid] | – |
| 203 | Cc1c(-c2ccccc2)nc2ccc(Cl)cc2c1C(=O)Nc1ccc(C(=O)O)cc1F [Example 59, 4-{[(6-Chloro-3-methyl-2-phenylquinolin-4-yl)carbonyl]amino}-3-fluorobenzoic acid] | – |
| 27 | COCS(=O)(=O)c1cc(C(=O)O)ccc1NC(=O)c1c(C)c(-c2ccccc2)nc2ccc(Br)cc12 [Example 60, 4-{[(6-Bromo-3-methyl-2-phenylquinolin-4-yl)carbonyl]amino}-3-[(methoxymethyl)sulfonyl]benzoic acid] | – |
| 131 | Cc1c(-c2ccccc2)nc2ccc(C(C)(C)C)cc2c1C(=O)Nc1ccc(C(=O)O)cc1F [Example 61, 4-{[(6-tert-Butyl-3-methyl-2-phenylquinolin-4-yl)carbonyl]amino}-3-fluorobenzoic acid] | IC50 (Human FP Receptor [2]): 79 nM |
| 105 | Cc1c(-c2ccccc2)nc2ccc(Br)cc2c1C(=O)Nc1ccc(C(=O)O)c(F)c1F [Example 65, 4-{[(6-Bromo-3-methyl-2-phenylquinolin-4-yl)carbonyl]amino}-2,3-difluorobenzoic acid] | IC50 (Human FP Receptor [2]): 60 nM |
| 9 | O=C(O)c1ccc(NC(=O)c2c(Cl)c(-c3ccccc3)nc3ccc(I)cc23)c(F)c1 [Example 75, 4-{[(3-Chloro-6-iodo-2-phenylquinolin-4-yl)carbonyl]amino}-3-fluorobenzoic acid] | – |
| 17 | O=C(O)c1ccc(NC(=O)c2c(Cl)c(-c3ccccc3)nc3ccc(Br)cc23)c(F)c1 [Example 76, 4-{[(6-Bromo-3-chloro-2-phenylquinolin-4-yl)carbonyl]amino}-3-fluorobenzoic acid] | – |
| 27 | O=C(O)c1ccc(NC(=O)c2c(C3CC3)c(-c3ccccc3)nc3ccc(Br)cc23)c(F)c1 [Example 77, 4-{[(6-Bromo-3-cyclopropyl-2-phenylquinolin-4-yl)carbonyl]amino}-3-fluorobenzoic acid] | – |
| 154 | Cc1c(-c2ccccc2)nc2c(C)cc(Br)cc2c1C(=O)Nc1ccc(C(=O)O)cc1F [Example 78, 4-{[(6-Bromo-3,8-dimethyl-2-phenylquinolin-4-yl)carbonyl]amino}-3-fluorobenzoic acid] | – |
